Assay results: PubChem BioAssay (NCI)
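Values below derive from 48-hour exposures of cells grown in 96-well plates, with endpoints linearly interpolated between the two concentrations bracketing the appropriate inhibition level. At the GI50, growth is halved. TGI marks complete inhibition of growth.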

Legend:
Experiment in all cases: DTP human tumour cell line panel, 48 h
[1] = system: TK-10 renal
[2] = system: MDA-N
[3] = system: MDA-MB-435
[4] = system: LOX IMVI melanoma
[5] = system: OVCAR-4 ovarian
[6] = system: NCI-H460 lung
[7] = system: KM12 colon
[8] = system: RPMI-8226 leukemia
[9] = system: SF-268 CNS
[10] = system: NCI-H226 lung

Structure (SMILES) | TGI [1] [µM] | TGI [2] [µM] | TGI [3] [µM] | TGI [4] [µM] | TGI [5] [µM] | TGI [6] [µM] | TGI [7] [µM] | TGI [8] [µM] | TGI [9] [µM] | TGI [10] [µM] | GI50 [4] [µM] | GI50 [6] [µM] | GI50 [8] [µM] | GI50 [9] [µM]
COc1ccc2nc3c([N+](=O)[O-])ccc(NCCCN(C)C)c3c(N)c2c1 | 3.46 | 3.47 | 3.66 | 3.23 | 3.06 | 2.59 | 3.02 | 1.84 | 3.31 | 3.82 |  |  |  | 
CCOC(=O)c1cc([N+](=O)[O-])cc([N+](=O)[O-])c1Sc1ncnc2nc[nH]c12 | 9.55 | 5.28 | 4.27 | 4.16 | 2.41 | 33.9 | 18.1 | > 21.8 | 16 | > 100 |  |  |  | 
O=c1cc(NNc2cccc(F)c2)[nH]c(=S)[nH]1 | > 100 | > 100 | > 100 | > 100 | > 100 | > 100 | > 100 | > 100 | > 100 | > 100 |  |  |  | 
N#CCN1CCCN(CC#N)CCN(CC#N)CCCN(CC#N)CC1 | > 100 | > 100 | > 100 | 65.8 | > 100 | > 100 | > 100 | > 100 | > 100 | > 100 |  |  |  | 
Nc1nc(N)c2nc(CNc3ccc(C(=O)NC(CCNC(=O)c4ccccc4C(=O)O)C(=O)O)cc3)cnc2n1 (centres undefined) | > 100 | > 100 | > 100 | > 100 | > 100 | > 100 | > 100 | > 100 | > 100 | > 100 | 0.00439 | 0.0144 | 0.0343 | 0.169
N#CC(C#N)C1CN2CCC1CC2 (centres undefined) | > 100 | > 100 | > 100 | > 100 | > 100 | > 100 | > 100 | > 100 | > 100 | > 100 |  |  |  | 
COc1cc(/C=C/C2=NN(c3cccc(S(=O)(=O)O)c3)C3(C2)SCC(=O)N3c2nc3ccccc3s2)cc(OC)c1OC (centres undefined) | 93.3 | > 100 | 50.2 | 40.7 | > 100 | > 100 | > 100 | 48.9 | > 100 | > 100 |  |  |  | 
COc1cc2nc3n(c(=O)c2cc1OC)CCCCC3 | > 100 | > 100 | > 100 | > 100 | > 100 | > 100 | > 100 | > 100 | > 100 | > 100 |  |  |  | 
O=C1C=CC(=O)[C@H]2C3C=CC(C4C3C3(Cl)C(Cl)=C(Cl)[C@]4(Cl)C3(Cl)Cl)[C@@H]12 (some centres undefined) | 30.5 | 15.8 | 7.02 | 11.7 | 16.2 | 15.9 | 17 | 23 | 18.4 | 23.5 |  |  |  | 
CC1(C)OC2[C@@H](CO[C@@]3([C@H]4OC(C)(C)O[C@@H]4CO)OC(C)(C)O[C@@H]23)O1 (some centres undefined) | > 100 | > 100 | > 100 | > 100 | > 100 | > 100 | > 100 | > 100 | > 100 | > 100 |  |  |  | 
Cc1csc2c(=O)n(COCc3ccccc3)c(=O)[nH]c12 | > 100 | > 100 | > 100 | > 100 | > 100 | > 100 | > 100 | > 100 | > 100 | > 100 |  |  |  | 
Cc1cc2c(cc1-c1cc3c(cc1C)C(C(C)C)=C(O)C(=O)/C3=C\Nc1ccccn1)/C(=C/Nc1ccccn1)C(=O)C(O)=C2C(C)C | > 100 | > 100 | > 100 | > 100 | > 100 | > 100 | 73.6 | > 100 | > 100 | 77.8 |  |  |  | 
O=C1c2c(F)c(F)c(F)c(F)c2SC2=Nc3cccc4cccc(c34)N12 | 26.1 | 16.7 | 12.8 | 7.79 | 9 | 29.3 | 10.2 | 8.02 | 13.7 | 28.7 |  |  |  | 
Clc1ccc(Nc2nnc(CNc3ccc(-c4nnc(Nc5ccc(Cl)cc5)o4)cc3)o2)cc1 | 28.9 | 44.5 | 30.6 | 20.7 | 42.6 | 41.6 | 23.3 | > 100 | 73.9 | 47.3 |  |  |  | 
CCOC(=O)CCC(C(=O)OCC)n1nnc2ccc(Nc3c(C)[n+]([O-])c4cc(F)c(OCC)cc4[n+]3[O-])cc21 (centres undefined) | > 100 | > 100 | > 100 | > 100 | > 100 | > 100 | > 100 | 54.3 | > 100 | > 100 |  |  |  | 
O=C(CBr)NCCc1c[nH]c2ccccc12 | 3.37 | 4.44 | 3.34 | 2.79 | 4 | 15 | 3.85 | 4.31 | 7.59 | 2.64 |  |  |  | 
